Laboratory results as given in ChEMBL document CHEMBL1201862, “PubChem BioAssay data set” (2004).
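Results reflect a 48-hour exposure of cells in 96-well plates to compound at five concentrations. Here, GI50 denotes the concentration required for 50% inhibition of growth.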 Activity calls are given as the source filed them. Rule as the data show it: active = GI50 up to about 1.1 µM and inactive = higher.

Columns and labels:
Experiment in all cases: inhibition of tumour cell growth, NCI panel, 48 h
NCI-H23 = tested on: NCI-H23
NCI-H522 = tested on: NCI-H522
TK-10 = tested on: TK-10
HCT-15 = tested on: HCT-15
SF-295 = tested on: SF-295
HL-60 = tested on: HL-60
HT-29 = tested on: HT-29
SK-MEL-2 = tested on: SK-MEL-2
786-0 = tested on: 786-0
IGROV-1 = tested on: IGROV-1
NCI-H226 = tested on: NCI-H226
SK-MEL-28 = tested on: SK-MEL-28
A498 = tested on: A498
UACC-257 = tested on: UACC-257
OVCAR-3 = tested on: OVCAR-3
SR = tested on: SR
SK-MEL-5 = tested on: SK-MEL-5
HCT-116 = tested on: HCT-116

SMILES	GI50 (NCI-H23)	GI50 (NCI-H522)	GI50 (TK-10)	GI50 (HCT-15)	GI50 (SF-295)	GI50 (HL-60)	GI50 (HT-29)	GI50 (SK-MEL-2)	GI50 (786-0)	GI50 (IGROV-1)	GI50 (NCI-H226)	GI50 (SK-MEL-28)	GI50 (A498)	GI50 (UACC-257)	GI50 (OVCAR-3)	GI50 (SR)	GI50 (SK-MEL-5)	GI50 (HCT-116)
CCC(=O)CCC1=Nc2nnc(CCCCc3nnc4n3C(=O)C(CCC(=O)CC)=N4)n2C1=O	> 100 µM (inactive)	> 100 µM (inactive)	> 100 µM (inactive)	> 100 µM	> 100 µM (inactive)	> 100 µM (inactive)	> 100 µM (inactive)	> 100 µM (inactive)	> 100 µM (inactive)	> 100 µM (inactive)	> 100 µM (inactive)	> 100 µM (inactive)	> 100 µM (inactive)	> 100 µM (inactive)	> 100 µM (inactive)			
Cc1ccccc1C(=O)Oc1ccc(OCc2ccccc2)cc1	66.8 µM (inactive)		> 100 µM (inactive)	38.6 µM	> 100 µM (inactive)	5.82 µM (inactive)	63.8 µM (inactive)		51.2 µM (inactive)	> 100 µM (inactive)		> 100 µM (inactive)	34.5 µM (inactive)	95.7 µM (inactive)	> 100 µM (inactive)	19.1 µM (inactive)	48.6 µM (inactive)	53.5 µM (inactive)
C[N+](C)=c1nc(N2CCOCC2)ss1	> 100 µM (inactive)	13.7 µM (inactive)	> 100 µM (inactive)	> 100 µM	78.2 µM (inactive)	> 100 µM (inactive)	22.8 µM (inactive)	> 100 µM (inactive)	> 100 µM (inactive)	> 100 µM (inactive)	> 100 µM (inactive)	> 100 µM (inactive)	4.14 µM (inactive)	> 100 µM (inactive)		> 100 µM (inactive)	> 100 µM (inactive)	> 100 µM (inactive)
O=C1C=C(N2CCCC2)C=C(N2CCCC2)C1	> 100 µM (inactive)	> 100 µM (inactive)	> 100 µM (inactive)	> 100 µM	> 100 µM (inactive)	> 100 µM (inactive)	> 100 µM (inactive)	> 100 µM (inactive)	> 100 µM (inactive)	> 100 µM (inactive)	> 100 µM (inactive)	> 100 µM (inactive)		> 100 µM (inactive)	75.5 µM (inactive)	> 100 µM (inactive)	> 100 µM (inactive)	> 100 µM (inactive)
Cc1cccc(NC2=NC(=O)C(CC(=O)Nc3cccc(C)c3C)S2)c1 (centres undefined)	> 100 µM (inactive)		> 100 µM (inactive)		> 100 µM (inactive)	35.9 µM (inactive)	> 100 µM (inactive)	> 100 µM (inactive)	> 100 µM (inactive)	> 100 µM (inactive)	> 100 µM (inactive)	> 100 µM (inactive)		> 100 µM (inactive)	> 100 µM (inactive)		> 100 µM (inactive)	> 100 µM (inactive)
Oc1ccccc1/C=N/Cc1ccco1	> 100 µM (inactive)		> 100 µM (inactive)		> 100 µM (inactive)	> 100 µM (inactive)	> 100 µM (inactive)		> 100 µM (inactive)	> 100 µM (inactive)	> 100 µM (inactive)	> 100 µM (inactive)	> 100 µM (inactive)	> 100 µM (inactive)	> 100 µM (inactive)	> 100 µM (inactive)		> 100 µM (inactive)
Nc1ccc2ncc(Nc3ccc(F)cc3)nc2c1	> 100 µM (inactive)	> 100 µM (inactive)	> 100 µM (inactive)	> 100 µM	> 100 µM (inactive)	> 100 µM (inactive)	> 100 µM (inactive)	> 10 µM (inactive)	> 100 µM (inactive)		37.5 µM (inactive)	> 100 µM (inactive)		> 100 µM (inactive)	> 100 µM (inactive)	44 µM (inactive)	34.9 µM (inactive)	> 100 µM (inactive)
Cc1nc2c(sc(=S)n2-c2ccccc2)c2nc3ccccc3n12	> 100 µM (inactive)	> 100 µM (inactive)	> 100 µM (inactive)	> 100 µM	> 100 µM (inactive)	> 100 µM (inactive)	> 100 µM (inactive)	> 100 µM (inactive)	> 100 µM (inactive)	> 100 µM (inactive)	> 100 µM (inactive)	> 100 µM (inactive)	> 10 µM (inactive)	> 100 µM (inactive)	> 100 µM (inactive)			
O=C(Nc1cccc2ccccc12)Oc1ccccc1C1CCCCC1	17.9 µM (inactive)		23 µM (inactive)	17.2 µM	16.3 µM (inactive)	27.2 µM (inactive)	18.2 µM (inactive)	18.2 µM (inactive)		23 µM (inactive)	18.2 µM (inactive)	22.6 µM (inactive)	17.6 µM (inactive)	15.5 µM (inactive)	18.6 µM (inactive)	17.5 µM (inactive)	15.5 µM (inactive)	17.7 µM (inactive)
